Consider 13 molecules from PubChem BioAssay (NCI).

The structures appear in SMILES notation.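 Method: 48-hour compound exposure of cells in 96-well plates, five concentrations, linear interpolation of endpoints. TGI is the concentration that stops growth completely.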

Test systems include A498 renal; DU-145 prostate; HCT-15 colon; MALME-3M melanoma; MDA-N; NCI-H23 lung; NCI/ADR-RES ovarian; SF-268 CNS; SW-620 colon; UO-31 renal.
Assay in all cases: NCI anticancer screen, dose series, 48 h

As to `Clc1ccc(/C(=C/c2ccccc2)Cn2ccnc2)cc1`, the TGI with A498 renal was 77.7 µM; with DU-145 prostate, more than 100 µM; in the assay on HCT-15 colon it was more than 100 µM; with MALME-3M melanoma it was more than 100 µM; in the assay on MDA-N, 46.6 µM; in the assay with NCI-H23 lung it was more than 100 µM. The TGI in the assay with NCI/ADR-RES ovarian is 66.6 µM; with SF-268 CNS it was more than 100 µM; in the assay on SW-620 colon, more than 100 µM; in the assay on UO-31 renal, more than 100 µM.

`COc1cc2c(cc1OCc1ccccc1)NC(=O)[C@@H]1CCCN1C2=O`: the TGI in the assay with A498 renal, in the assay on DU-145 prostate, with HCT-15 colon, in the assay on MALME-3M melanoma, in the assay with MDA-N and in the assay with NCI-H23 lung was more than 100 µM in each case. The TGI in the assay on NCI/ADR-RES ovarian, with SF-268 CNS, in the assay with SW-620 colon and in the assay with UO-31 renal was more than 100 µM throughout.

On to `O=c1c2cc([N+](=O)[O-])ccc2oc2nc3n(c(=O)c12)CCCS3`, for which the TGI with A498 renal, in the assay on DU-145 prostate, in the assay on HCT-15 colon, with MALME-3M melanoma, in the assay with MDA-N and in the assay on NCI-H23 lung was more than 100 µM in each case. The TGI in the assay with NCI/ADR-RES ovarian, in the assay with SF-268 CNS, in the assay with SW-620 colon and in the assay on UO-31 renal was more than 100 µM each time.

For the molecule `CCc1nc2c(c(N(C)C)c1C(=O)OC)CCc1ccccc1-2`, the TGI is 75.3 µM in the assay with A498 renal; 40.9 µM in the assay on DU-145 prostate; more than 100 µM with HCT-15 colon; more than 100 µM in the assay on MALME-3M melanoma; 81.5 µM in the assay with MDA-N; more than 100 µM with NCI-H23 lung. Moreover, the TGI in the assay on NCI/ADR-RES ovarian, with SF-268 CNS, with SW-620 colon and in the assay on UO-31 renal was more than 100 µM in each case.

For the molecule `NCCCCNCCCN1CCOC1=O`, the TGI with A498 renal, in the assay on DU-145 prostate, in the assay on HCT-15 colon, in the assay on MALME-3M melanoma, in the assay with MDA-N and in the assay on NCI-H23 lung was more than 100 µM in each case. Besides, the TGI in the assay on NCI/ADR-RES ovarian, with SF-268 CNS, in the assay with SW-620 colon and in the assay with UO-31 renal was more than 100 µM throughout.

For `Cc1cc(-c2cc(C(C)(C)C)c(O)c(C(C)(C)C)c2)c(C)cc1-c1cc(C(C)(C)C)c(O)c(C(C)(C)C)c1`, the TGI with A498 renal is 92.7 µM; in the assay on DU-145 prostate, more than 100 µM; with HCT-15 colon, more than 100 µM; with MALME-3M melanoma, more than 100 µM; in the assay on MDA-N, more than 100 µM; in the assay on NCI-H23 lung, more than 100 µM. Also, the TGI in the assay with NCI/ADR-RES ovarian, in the assay with SF-268 CNS, with SW-620 colon and with UO-31 renal was more than 100 µM each time.

Regarding `N#C/C(C(=O)NCc1ccccc1)=C(/N)N1CCCC1`, the TGI in the assay with A498 renal, in the assay with DU-145 prostate, with HCT-15 colon, in the assay with MALME-3M melanoma, with MDA-N and in the assay with NCI-H23 lung was more than 100 µM in each case. Moreover, the TGI in the assay on NCI/ADR-RES ovarian, with SF-268 CNS, with SW-620 colon and in the assay with UO-31 renal was more than 100 µM each time.

Take `CC1=NN2C(=N)/C(=C/c3ccc(F)cc3)C(=O)N=C2S1`: the TGI in the assay on A498 renal, in the assay on DU-145 prostate, in the assay with HCT-15 colon, in the assay on MALME-3M melanoma, in the assay with MDA-N and in the assay on NCI-H23 lung was more than 100 µM throughout. The TGI with NCI/ADR-RES ovarian was 28.5 µM; in the assay with SF-268 CNS, more than 100 µM; with SW-620 colon it was more than 100 µM; with UO-31 renal, more than 100 µM.

`O=c1c2c3c(sc2nc2n1N=C(c1ccc(Br)cc1)CS2)CCCC3`: the TGI in the assay with A498 renal, with DU-145 prostate, in the assay with HCT-15 colon, with MALME-3M melanoma, in the assay on MDA-N and with NCI-H23 lung was more than 100 µM throughout. Besides, the TGI with NCI/ADR-RES ovarian, in the assay on SF-268 CNS, with SW-620 colon and with UO-31 renal was more than 100 µM throughout.

Take `O=C(c1ccc([N+](=O)[O-])cc1)N1CCCC1`: the TGI in the assay with A498 renal, in the assay on DU-145 prostate, in the assay on HCT-15 colon, in the assay with MALME-3M melanoma, in the assay on MDA-N and in the assay with NCI-H23 lung was more than 100 µM throughout. Besides, the TGI in the assay with NCI/ADR-RES ovarian, in the assay with SF-268 CNS, in the assay on SW-620 colon and in the assay with UO-31 renal was more than 100 µM each time.

For `CN1c2ccccc2C2=C(c3ccccc3)CC[C@@H](C(=O)N3C4CC5CC[C@@]4(CS3(=O)=O)C5(C)C)[C@@H]21` (stereo not given in full), the TGI in the assay on A498 renal, in the assay on DU-145 prostate, in the assay with HCT-15 colon, in the assay on MALME-3M melanoma, in the assay on MDA-N and in the assay on NCI-H23 lung was more than 100 µM each time. Besides, the TGI in the assay on NCI/ADR-RES ovarian, with SF-268 CNS, with SW-620 colon and with UO-31 renal was more than 100 µM throughout.

Turning to `CC(=O)/C(=N\Nc1ccc(Cl)cc1)C(C)=Nc1ccc(C)cc1`, the TGI with A498 renal was 85.2 µM; with DU-145 prostate it was more than 100 µM; with HCT-15 colon, more than 100 µM; with MALME-3M melanoma it was 59.2 µM; with MDA-N it was more than 100 µM; in the assay with NCI-H23 lung it was more than 100 µM. In addition, the TGI with NCI/ADR-RES ovarian, in the assay on SF-268 CNS, in the assay on SW-620 colon and with UO-31 renal was more than 100 µM in each case.

As for `O=C1C=CC(=O)c2c(O)c(N3CCC[C@@H]3CO)c(Cl)c(O)c21`, the TGI in the assay on A498 renal was 6.96 µM; with DU-145 prostate it was 3.28 µM; in the assay with HCT-15 colon, 3.35 µM; in the assay on MALME-3M melanoma, 3.07 µM; in the assay with MDA-N it was 3.15 µM; in the assay with NCI-H23 lung, 3.55 µM. Besides, the TGI in the assay on NCI/ADR-RES ovarian was 6.25 µM; in the assay on SF-268 CNS it was 1.74 µM; in the assay on SW-620 colon, 3.42 µM; with UO-31 renal it was 3.49 µM.
